Key:
[1] = molecular target: T1, TRKC-G623R (Homo sapiens, UniProt Q16288, G623R); assay: TRK kinase mutant inhibition (HTRF), TRKC-G623R; type: biochemical
T1 construct: purchased Carna Biosciences

[2] = molecular target: T2, TRKA-G667C (Homo sapiens, UniProt P04629, G667C); assay: TRK kinase mutant inhibition (HTRF), TRKA-G667C; type: biochemical
T2 construct: purchased Carna Biosciences

[3] = molecular target: T3, TRKA-G595R (Homo sapiens, UniProt P04629, G595R); assay: TRK kinase mutant inhibition (HTRF), TRKA-G595R; type: biochemical
T3 construct: purchased Carna Biosciences
T3 sequence (P04629 33-796 G595R): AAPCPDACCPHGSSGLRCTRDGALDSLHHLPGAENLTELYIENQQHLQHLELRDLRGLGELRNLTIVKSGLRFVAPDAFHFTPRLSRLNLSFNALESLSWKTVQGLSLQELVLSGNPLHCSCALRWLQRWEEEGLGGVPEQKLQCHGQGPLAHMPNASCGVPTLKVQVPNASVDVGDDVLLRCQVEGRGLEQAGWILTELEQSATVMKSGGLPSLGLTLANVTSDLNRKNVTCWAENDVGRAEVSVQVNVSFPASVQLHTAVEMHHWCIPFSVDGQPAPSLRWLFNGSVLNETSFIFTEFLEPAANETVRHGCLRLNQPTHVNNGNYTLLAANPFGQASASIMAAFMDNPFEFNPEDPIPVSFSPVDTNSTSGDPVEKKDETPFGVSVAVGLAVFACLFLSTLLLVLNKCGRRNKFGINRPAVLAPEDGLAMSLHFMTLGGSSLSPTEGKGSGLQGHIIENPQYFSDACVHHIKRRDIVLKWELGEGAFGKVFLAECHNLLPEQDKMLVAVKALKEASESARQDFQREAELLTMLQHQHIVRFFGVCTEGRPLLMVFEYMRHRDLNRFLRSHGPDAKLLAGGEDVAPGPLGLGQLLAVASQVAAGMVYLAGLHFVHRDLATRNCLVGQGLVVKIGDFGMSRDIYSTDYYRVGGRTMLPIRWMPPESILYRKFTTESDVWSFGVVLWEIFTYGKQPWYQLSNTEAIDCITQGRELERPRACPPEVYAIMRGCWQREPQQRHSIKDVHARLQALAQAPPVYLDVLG

[4] = molecular target: T4, TRKB (Homo sapiens, UniProt Q16620); assay: In vitro biochemical HTRF KinEASE kinase inhibition, TRKB; conditions: wild-type kinase, final ATP 2.56 μmol/L
T4 construct: purchased Carna Biosciences 08-187
T4 sequence (Q16620 32-822): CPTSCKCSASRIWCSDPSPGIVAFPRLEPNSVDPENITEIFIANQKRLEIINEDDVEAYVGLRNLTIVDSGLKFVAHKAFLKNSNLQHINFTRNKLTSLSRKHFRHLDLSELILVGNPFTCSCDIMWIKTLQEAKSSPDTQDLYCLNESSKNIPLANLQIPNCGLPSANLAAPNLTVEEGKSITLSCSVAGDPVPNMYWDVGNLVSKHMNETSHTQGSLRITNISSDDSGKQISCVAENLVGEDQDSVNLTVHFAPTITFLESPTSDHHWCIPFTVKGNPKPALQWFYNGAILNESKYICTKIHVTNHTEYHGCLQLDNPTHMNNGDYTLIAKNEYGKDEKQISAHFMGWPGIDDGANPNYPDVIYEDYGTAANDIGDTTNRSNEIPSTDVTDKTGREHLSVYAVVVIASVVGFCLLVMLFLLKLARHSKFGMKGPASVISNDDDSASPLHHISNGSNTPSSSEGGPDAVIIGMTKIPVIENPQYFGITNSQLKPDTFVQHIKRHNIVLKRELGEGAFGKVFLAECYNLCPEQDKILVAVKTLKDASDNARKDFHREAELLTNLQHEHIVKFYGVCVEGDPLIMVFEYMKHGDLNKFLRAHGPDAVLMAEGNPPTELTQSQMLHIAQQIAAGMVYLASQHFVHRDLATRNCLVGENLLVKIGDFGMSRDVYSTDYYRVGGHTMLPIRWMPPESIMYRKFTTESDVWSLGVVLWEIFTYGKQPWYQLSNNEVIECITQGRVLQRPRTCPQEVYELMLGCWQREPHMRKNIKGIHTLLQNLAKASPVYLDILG
Experimental: The material and the method are as follows: wild-type kinases such as TRKA, TRKB and TRKC, and mutant kinases such as TRKA-G595R, TRKA-G667C, TRKA-F589L, TRKC-G623R and TRKC-G696A, and are derived from Carna Biosciences 08-186, 08-187, 08-197; HTRF KinEASE TKkit (Cisbio 62TKO PEC); 384 well plates (Greiner corporation); ATP (Life technologies PV 3227), MgCl2 (sigma); PHERAstar FS Multifunctional microplate reader (BMG Co.); low speed centrifuge (StaiteXiangyi corporation); incubator (Binder company).
Preparing a compound working solution: the dispensed compounds were removed from the freezer prior to testing and diluted to 100× concentration with pure DMSO; then the compound was diluted to the desired concentration of 4× with deionized water;
Preparation of 1.33× enzyme buffer (enzyme buffer): 5× enzyme buffer (from HTRF kit) was diluted to 1.33× with deionized water and the corresponding ingredients were added at a final concentration of 1.33×: 1.33 mmol/L Dithiothreitol (DTT), 1.33 mmol/L MnCl2, 6.65 mmol/L MgCl2 and 39.9 nmol/L SEB;
Preparation of a kinase working solution: TRKA, TRKB and TRKC were diluted with 1.33× enzyme buffer to the required concentrations of 2× of 0.404 ng/μL, 0.304 ng/μL and 0.236 ng/μL, respectively;
Preparing a substrate working solution: a mixture of TK Substrate Blr diluted to the desired final concentration of 4× (from HTRF kit) and ATP (10 mM) with 1.33× enzyme buffer; the final ATP concentrations for TRKA, TRKB, and TRKC were: 3.727 μmol/L, 2.56 μmol/L and 2.526 μmol/L. The TK Substrate-biotin (from HTRF KinEASE TKkit) final concentrations were all: 0.2 μmol/L.
Preparing a detection working solution: 16.67 μmol/L of Streptavidin-XL665 (Streptavidin-XL 665) were diluted to the desired final concentration of 4× with HTRF test buffer and then mixed with an equal volume of Antibody-europium Cryptate (Antibody-Cryptate) (both from HTRF kits).
An enzyme reaction step: add 4 μL of kinase working solution to each well of a low volume 384 microwell plate along with 4 μL of 1.33× enzyme buffer as a Negative control (Negative); add 2 μl of compound working solution to the wells, while adding 2 μl of […] aqueous solution as a zero compound concentration control (i.e., Positive control, Positive); incubating at 25° C. for 5 min; add 2 μL of substrate working solution to the wells to start the enzymatic reaction, shake the reaction for 30 min at 37° C.
HTRF reagent detection step: adding […] to the hole to terminate the reaction; reacting for 1 h at 25° C.;
Reading of HTRF signal: the PHERAstar FS reading is adopted to detect signals, and the corresponding setting of the instrument is as follows:
For the raw data read out per well, the ratio=665 nm/620 nm;
Calculation of inhibition rate:
Calculation of IC50 values: with the logarithm of the compound concentration as abscissa and the inhibition as ordinate, a non-linear curve was fitted in GraphPad Prism 5: log (inhibitor) vs. response—Variable slope, and calculating the concentration of the compound to be detected, namely IC50, when the enzyme activity inhibition rate is 50%.

[5] = molecular target: T5, TRKC-G696A (Homo sapiens, UniProt Q16288, G696A); assay: TRK kinase mutant inhibition (HTRF), TRKC-G696A; type: biochemical
T5 construct: purchased Carna Biosciences
T5 sequence (Q16288 32-839 G696A): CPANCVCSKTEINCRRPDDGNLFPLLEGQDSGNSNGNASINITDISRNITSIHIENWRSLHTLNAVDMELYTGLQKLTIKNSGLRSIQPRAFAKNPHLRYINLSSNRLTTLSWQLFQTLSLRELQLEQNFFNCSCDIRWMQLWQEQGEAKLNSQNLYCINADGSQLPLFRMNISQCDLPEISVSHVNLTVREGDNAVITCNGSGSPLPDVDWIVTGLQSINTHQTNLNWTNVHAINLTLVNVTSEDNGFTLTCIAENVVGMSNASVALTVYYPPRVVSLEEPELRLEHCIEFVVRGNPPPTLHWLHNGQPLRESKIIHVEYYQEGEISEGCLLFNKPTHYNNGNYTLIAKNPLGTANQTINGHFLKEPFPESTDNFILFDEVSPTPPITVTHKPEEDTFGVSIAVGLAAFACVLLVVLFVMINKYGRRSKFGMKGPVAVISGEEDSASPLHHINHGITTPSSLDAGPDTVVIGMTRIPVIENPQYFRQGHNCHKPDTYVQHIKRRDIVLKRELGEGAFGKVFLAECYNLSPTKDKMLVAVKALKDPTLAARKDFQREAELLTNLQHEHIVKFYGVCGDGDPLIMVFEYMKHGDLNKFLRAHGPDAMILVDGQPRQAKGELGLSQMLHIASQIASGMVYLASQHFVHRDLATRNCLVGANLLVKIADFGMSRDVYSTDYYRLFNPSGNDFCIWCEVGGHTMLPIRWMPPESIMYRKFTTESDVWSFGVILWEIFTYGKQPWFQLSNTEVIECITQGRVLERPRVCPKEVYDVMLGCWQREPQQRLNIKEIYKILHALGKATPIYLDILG

[6] = molecular target: T6, TRKA-F589L (Homo sapiens, UniProt P04629, F589L); assay: TRK kinase mutant inhibition (HTRF), TRKA-F589L; type: biochemical
T6 construct: purchased Carna Biosciences
T6 sequence (P04629 33-796 F589L): as the sequence (P04629 33-796 G595R) above, with F557L, R563G counted along it

[7] = molecular target: T7, TRKC (Homo sapiens, UniProt Q16288); assay: In vitro biochemical HTRF KinEASE kinase inhibition, TRKC; conditions: wild-type kinase, final ATP 2.526 μmol/L
T7 construct: purchased Carna Biosciences 08-197
T7 sequence (Q16288 32-825 isoform Q16288-3 limits assumed): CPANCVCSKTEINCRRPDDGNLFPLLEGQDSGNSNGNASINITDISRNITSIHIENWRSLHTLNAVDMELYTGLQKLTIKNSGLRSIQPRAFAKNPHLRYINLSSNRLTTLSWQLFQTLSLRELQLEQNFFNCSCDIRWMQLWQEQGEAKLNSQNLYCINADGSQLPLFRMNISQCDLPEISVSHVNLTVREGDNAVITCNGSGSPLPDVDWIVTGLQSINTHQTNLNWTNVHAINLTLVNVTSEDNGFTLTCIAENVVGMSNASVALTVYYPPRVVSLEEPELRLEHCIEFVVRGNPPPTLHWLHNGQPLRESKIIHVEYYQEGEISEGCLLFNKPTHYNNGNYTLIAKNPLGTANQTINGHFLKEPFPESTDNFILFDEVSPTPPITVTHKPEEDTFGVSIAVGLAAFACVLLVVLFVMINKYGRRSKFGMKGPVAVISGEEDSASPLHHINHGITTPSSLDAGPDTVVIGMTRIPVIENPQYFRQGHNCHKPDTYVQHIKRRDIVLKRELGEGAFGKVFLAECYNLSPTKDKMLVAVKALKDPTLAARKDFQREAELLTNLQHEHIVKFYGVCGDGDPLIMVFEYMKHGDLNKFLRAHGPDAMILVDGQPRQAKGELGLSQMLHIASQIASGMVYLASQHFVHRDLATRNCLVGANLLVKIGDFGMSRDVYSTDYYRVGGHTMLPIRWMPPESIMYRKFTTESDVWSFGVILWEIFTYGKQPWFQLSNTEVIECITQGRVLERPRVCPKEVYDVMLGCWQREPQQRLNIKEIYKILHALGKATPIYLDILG

[8] = Drug metabolism study in rats, oral administration; conditions: rat; for CL / Vz: oral 5 mg/kg; for AUC(0-t) / Cmax / MRT last / Tmax / bioavailability / half-life: plasma, po, 5 mg/kg
[9] = Drug metabolism study in rats, intravenous administration; conditions: rat, plasma, iv, 1 mg/kg
[10] = molecular target: T8, TRKA (Homo sapiens, UniProt P04629); assay: In vitro biochemical HTRF KinEASE kinase inhibition, TRKA; conditions: wild-type kinase, final ATP 3.727 μmol/L; read-out: TRKA IC50
T8 construct: purchased Carna Biosciences 08-186
T8 sequence (P04629 33-796): as the sequence (P04629 33-796 G595R) above, with R563G counted along it

T1 sequence (Q16288 32-839 G623R): as the sequence (Q16288 32-839 G696A) above, with G592R, A665G counted along it
T2 sequence (P04629 33-796 G667C): as the sequence (P04629 33-796 G595R) above, with R563G, G635C counted along it

SMILES	IC50 [1]	IC50 [2]	IC50 [3]	IC50 [4]	IC50 [5]	IC50 [6]	IC50 [7]	IC50 [10]	other results
C[C@@H](Nc1ccn2ncc(-c3cnn(C)c3)c2n1)c1cc(F)ccc1OC(F)F [Compound a4-8]	2.9 nM	3.2 nM	1.2 nM	1.5 nM	1.1 nM	0.4 nM	3.5 nM	2.4 nM	–
CC(Nc1ccn2ncc(-c3cnn(C(F)F)c3)c2n1)c1cc(F)ccc1OCCF (stereo not drawn) [Compound a11-18, 3-(1-(difluoromethyl)-1H-pyrazol-4-yl)-N-(1-(5-fluoro-2-(2-fluoroethoxy)phenyl)ethyl) pyrazolo [1,5-a] pyrimidin-5-amine]	0.93 nM	1 nM	1.1 nM	–	0.77 nM	0.32 nM	–	10.9 nM	–
C[C@@H](Nc1ccn2ncc(-c3cnn(C)c3)c2n1)c1cc(F)ccc1OCC(F)(F)F [Compound a23-31, (R)-N-(1-(5-fluoro-2-(2,2,2-trifluoroethoxy)phenyl)ethyl)-3-(1-methyl-1H-pyrazol-4-yl) pyrazolo [1,5-a] pyrimidin-5-amine]	1.7 nM	1.37 nM	1.5 nM	3 nM	0.88 nM	0.38 nM	6.1 nM	4 nM	–
C[C@@H](Nc1ccn2ncc(-c3cnn(CCO)c3)c2n1)c1cc(F)ccc1OCC(F)(F)F [Compound a24-32, (R)-2-(4-(5-((1-(5-fluoro-2-(2,2,2-trifluoroethoxy)phenyl)ethyl)amino)pyrazolo [1,5-a]pyrimidin-3-yl)-1H-pyrazol-1-yl) ethanol]	1.1 nM	1.39 nM	0.94 nM	1.4 nM	0.75 nM	0.44 nM	2.9 nM	3.1 nM	CL [8]: 105 mL/min/kg; Vz [8]: 28.2 L/kg; AUC(0-t) [8]: 816 ng·h/mL; Cmax [8]: 195 ng/mL; MRT last [8]: 3.8 h; Tmax [8]: 0.5 h; bioavailability [8]: 47.6%; half-life [8]: 3.2 h; AUC(0-t) [9]: 343 ng·h/mL; Cmax [9]: 155 ng/mL; MRT last [9]: 4.29 h; Vd [9]: 22.8 L/kg; clearance [9]: 47.7 mL/min/kg; half-life [9]: 5.51 h
C[C@@H](Nc1ccn2ncc(-c3cn[nH]c3)c2n1)c1cc(F)ccc1OCCF [Compound b7-16, (R)-N-(1-(5-fluoro-2-(2-fluoroethoxy)phenyl)ethyl)-3-(1H-pyrazol-4-yl) pyrazolo [1,5-a] pyrimidin-5-amine]	0.93 nM	1 nM	1.1 nM	2.5 nM	0.77 nM	0.32 nM	3 nM	2.5 nM	–

More lines, main results first:

IC50 [1]	IC50 [2]	IC50 [3]	IC50 [4]	IC50 [5]	IC50 [6]	IC50 [7]	IC50 [10]	SMILES	other results
0.45 nM	1.76 nM	0.84 nM	1.9 nM	0.76 nM	0.22 nM	3.1 nM	1.9 nM	C[C@@H](Nc1ccn2ncc(-c3cn[nH]c3)c2n1)c1cc(F)ccc1OCC(F)F [Compound 1, (R)-N-(1-(2-(2,2-difluoroethoxy)-5-fluorophenyl)ethyl)-3-(1H-pyrazol-4-yl) pyrazolo [1,5-a] pyrimidin-5-amine]	CL [8]: 126 mL/min/kg; Vz [8]: 48.49 L/kg; AUC(0-t) [8]: 650 ng·h/mL; Cmax [8]: 109 ng/mL; MRT last [8]: 5.69 h; Tmax [8]: 0.83 h; bioavailability [8]: 29.9%; half-life [8]: 4.44 h; AUC(0-t) [9]: 434 ng·h/mL; Cmax [9]: 260 ng/mL; MRT last [9]: 3.62 h; Vd [9]: 16.9 L/kg; clearance [9]: 38.5 mL/min/kg; half-life [9]: 5.1 h
> 1000 nM	> 1000 nM	> 1000 nM	> 1000 nM	> 1000 nM	> 1000 nM	> 1000 nM	> 1000 nM	CC(Nc1ccn2ncc(-c3cn[nH]c3)c2n1)c1cc(F)cc(OCC(F)F)c1 (stereo not drawn) [Control Compound C, reference compound]	–
> 1000 nM	> 1000 nM	> 1000 nM	> 1000 nM	> 1000 nM	> 1000 nM	> 1000 nM	> 1000 nM	CC(Nc1ccn2ncc(-c3cn[nH]c3)c2n1)c1ccc(OCC(F)F)c(F)c1 (stereo not drawn) [Control Compound D, reference compound]	–

— patent publication US20220177477A1 (Central China Normal University, priority 2019, published 2022)
